Experimental data published in ChEMBL document CHEMBL1138391, “Syntheses of hydroxy substituted 2-phenyl-naphthalenes as inhibitors of tyrosinase” (Bioorg Med Chem Lett, 2007).

Biological target: T1, Tyrosinase (Agaricus bisporus, UniProt O42713)
T1 sequence (O42713 whole entry): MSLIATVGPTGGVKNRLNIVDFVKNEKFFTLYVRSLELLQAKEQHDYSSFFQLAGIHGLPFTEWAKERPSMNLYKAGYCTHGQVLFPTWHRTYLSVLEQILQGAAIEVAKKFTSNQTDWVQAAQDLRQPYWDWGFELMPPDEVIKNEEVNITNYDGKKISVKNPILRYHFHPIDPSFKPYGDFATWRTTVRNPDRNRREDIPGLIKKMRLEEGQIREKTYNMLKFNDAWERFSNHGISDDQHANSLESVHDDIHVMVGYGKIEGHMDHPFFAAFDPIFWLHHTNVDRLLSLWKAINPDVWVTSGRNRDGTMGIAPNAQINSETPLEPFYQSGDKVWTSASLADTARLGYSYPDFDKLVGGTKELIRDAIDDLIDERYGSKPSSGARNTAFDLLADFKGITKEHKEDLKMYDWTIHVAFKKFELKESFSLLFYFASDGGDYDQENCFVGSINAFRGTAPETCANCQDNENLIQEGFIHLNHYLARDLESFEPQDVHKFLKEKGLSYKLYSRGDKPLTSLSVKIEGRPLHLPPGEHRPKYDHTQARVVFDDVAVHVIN
Description: Inhibition of mushroom tyrosinase

IC50 [µM] | SMILES
6.4 | Oc1cccc(-c2ccc3cc(O)ccc3c2)c1
16.5 | Oc1cc(O)cc(-c2ccc3cc(O)ccc3c2)c1
2.95 | Oc1ccc2cc(-c3cc(O)c(O)c(O)c3)ccc2c1
0.034 | Oc1ccc(-c2ccc3cc(O)ccc3c2)c(O)c1
0.49 | Oc1cc(O)cc(-c2ccc3cc(O)cc(O)c3c2)c1
33.5 | Oc1ccc(O)cc1 [HYDROQUINONE]
55.6 | Oc1ccc(/C=C/c2cc(O)cc(O)c2)cc1 [RESVERATROL]
